Key:
[1] = target: T1, human muscarinic M1 receptor (Homo sapiens, UniProt P11229); test: Alphascreen Surefire phospho-ERK1/2 functional assay, M1; assay type: cell-based; settings: for M1 % Emax cf. ACh / EC50: CHO cells stably expressing human M1; for M1 % Emax cf. ACh / Emax: Emax relative to ACh; for EC50: phospho-ERK1/2, read-out: pEC50 M1 (converted); for Emax: CHO, read-out: M1 % Emax cf. ACh, CHO cells stably expressing human M1
T1 construct: expressed in transfected cells
T1 sequence (P11229 1-460): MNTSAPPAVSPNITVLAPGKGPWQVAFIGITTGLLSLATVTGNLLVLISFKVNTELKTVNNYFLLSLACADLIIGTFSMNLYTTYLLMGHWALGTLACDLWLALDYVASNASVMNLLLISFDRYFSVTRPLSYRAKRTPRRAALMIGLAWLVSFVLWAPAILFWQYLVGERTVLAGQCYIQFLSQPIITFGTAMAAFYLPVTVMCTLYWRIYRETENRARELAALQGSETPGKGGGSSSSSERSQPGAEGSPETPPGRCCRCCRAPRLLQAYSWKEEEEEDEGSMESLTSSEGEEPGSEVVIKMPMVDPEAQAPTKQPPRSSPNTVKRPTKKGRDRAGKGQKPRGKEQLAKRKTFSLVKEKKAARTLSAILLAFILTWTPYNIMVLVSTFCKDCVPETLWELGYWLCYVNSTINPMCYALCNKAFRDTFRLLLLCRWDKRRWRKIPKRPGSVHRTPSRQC
Experimental: (§1) CHO cells stably expressing the human muscarinic M1, M2, M3 or M4 receptor were plated (25K/well) onto 96-well tissue culture plates in MEM-alpha+10% dialysed FBS. Once adhered, cells were serum-starved overnight. Agonist stimulation was performed by the addition of 5 μL agonist to the cells for 5 min (37° C.). Media was removed and 50 μL of lysis buffer added. After 15 min, a 4 μL sample was transferred to 384-well plate and 7 μL of detection mixture added. Plates were incubated for 2 h with gentle agitation in the dark and then read on a PHERAstar plate reader.
(§2) pEC50 and Emax figures were calculated from the resulting data for each receptor subtype.

[2] = target: human muscarinic M3 receptor (Homo sapiens, UniProt P20309); test: Alphascreen Surefire phospho-ERK1/2 functional assay, M3; settings: for Emax: CHO, read-out: M3 % Emax cf. ACh, CHO cells stably expressing human M3; for Emax / M3 % Emax cf. ACh: Emax relative to ACh; for M3 % Emax cf. ACh / pEC50 M3: CHO cells stably expressing human M3; for pEC50 M3: phospho-ERK1/2
Chain of human muscarinic M3 receptor (P20309 whole entry): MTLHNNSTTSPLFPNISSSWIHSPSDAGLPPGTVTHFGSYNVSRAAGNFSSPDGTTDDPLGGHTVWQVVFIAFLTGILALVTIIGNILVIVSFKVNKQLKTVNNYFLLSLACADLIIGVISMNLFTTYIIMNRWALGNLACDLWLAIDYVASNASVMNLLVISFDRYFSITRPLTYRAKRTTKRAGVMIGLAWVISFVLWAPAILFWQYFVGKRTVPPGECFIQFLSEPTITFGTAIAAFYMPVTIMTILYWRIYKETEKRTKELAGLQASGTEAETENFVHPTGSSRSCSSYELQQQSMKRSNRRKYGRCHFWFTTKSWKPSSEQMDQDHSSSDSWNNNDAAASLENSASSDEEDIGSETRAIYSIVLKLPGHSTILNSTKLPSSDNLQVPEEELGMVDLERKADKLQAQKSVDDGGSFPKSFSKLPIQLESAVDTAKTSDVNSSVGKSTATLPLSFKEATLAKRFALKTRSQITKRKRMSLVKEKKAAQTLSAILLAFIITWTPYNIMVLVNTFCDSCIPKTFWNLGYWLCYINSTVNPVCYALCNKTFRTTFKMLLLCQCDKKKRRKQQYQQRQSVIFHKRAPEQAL
Experimental: as §1, §2

[3] = target: T2, human muscarinic M2 receptor (Homo sapiens, UniProt P08172); test: Alphascreen Surefire phospho-ERK1/2 functional assay, M2; settings: for Emax: CHO, read-out: M2 % Emax cf. ACh, CHO cells stably expressing human M2; for Emax / M2 % Emax cf. ACh: Emax relative to ACh; for EC50: pEC50 M2, CHO cells stably expressing human M2; for EC50 / pEC50 M2: phospho-ERK1/2; for M2 % Emax cf. ACh / pEC50 M2: CHO cells stably expressing human M2
T2 sequence (P08172 1-466): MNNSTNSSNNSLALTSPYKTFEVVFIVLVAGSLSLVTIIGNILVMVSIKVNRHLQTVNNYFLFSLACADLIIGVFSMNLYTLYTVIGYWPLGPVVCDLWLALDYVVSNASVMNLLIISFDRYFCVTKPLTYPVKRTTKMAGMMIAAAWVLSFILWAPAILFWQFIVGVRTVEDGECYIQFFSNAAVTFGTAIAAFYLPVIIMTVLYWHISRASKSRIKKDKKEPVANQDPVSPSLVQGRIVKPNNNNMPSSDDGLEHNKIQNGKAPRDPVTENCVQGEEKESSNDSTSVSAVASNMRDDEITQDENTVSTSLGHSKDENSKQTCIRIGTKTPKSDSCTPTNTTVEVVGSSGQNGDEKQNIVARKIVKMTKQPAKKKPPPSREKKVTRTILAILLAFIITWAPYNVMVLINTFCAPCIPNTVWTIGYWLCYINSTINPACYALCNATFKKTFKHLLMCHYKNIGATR
Experimental: as §1, §2

[4] = target: T3, human muscarinic M4 receptor (Homo sapiens, UniProt P08173); test: Alphascreen Surefire phospho-ERK1/2 functional assay, M4; assay type: cell-based; settings: for M4 % Emax cf. ACh / EC50: CHO cells stably expressing human M4; for M4 % Emax cf. ACh / Emax: Emax relative to ACh; for EC50: phospho-ERK1/2, read-out: pEC50 M4 (converted); for Emax: CHO, read-out: M4 % Emax cf. ACh, CHO cells stably expressing human M4
T3 construct: expressed in transfected cells
T3 sequence (P08173 1-479): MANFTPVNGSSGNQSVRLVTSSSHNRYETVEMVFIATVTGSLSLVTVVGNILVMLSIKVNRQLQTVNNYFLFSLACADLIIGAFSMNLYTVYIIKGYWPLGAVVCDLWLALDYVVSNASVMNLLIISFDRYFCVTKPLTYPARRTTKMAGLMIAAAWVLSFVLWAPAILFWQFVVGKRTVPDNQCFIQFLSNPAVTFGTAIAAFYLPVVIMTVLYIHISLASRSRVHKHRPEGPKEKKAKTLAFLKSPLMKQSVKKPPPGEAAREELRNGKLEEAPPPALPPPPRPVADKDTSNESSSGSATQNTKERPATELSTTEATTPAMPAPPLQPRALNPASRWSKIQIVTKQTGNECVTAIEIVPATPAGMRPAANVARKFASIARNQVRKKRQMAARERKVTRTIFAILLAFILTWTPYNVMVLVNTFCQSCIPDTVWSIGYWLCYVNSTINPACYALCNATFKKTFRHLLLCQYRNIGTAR
Experimental: as §1, §2

SMILES	M1 % Emax cf. ACh [1]	EC50 [1]	EC50 [2]	Emax [2]	Emax [3]	EC50 [3]	M4 % Emax cf. ACh [4]	EC50 [4]	Emax [1]	Emax [4]	M2 % Emax cf. ACh [3]	M3 % Emax cf. ACh [2]	pEC50 M3 [2]	pEC50 M2 [3]
CCOC(=O)N1CCC2(CC(N3CCC4(CC3)CNC(=O)O4)C2)C1 (single isomer, unassigned) [4-3 Isomer 2]	(116) %	0.02 µM	> 20 µM	7%	0%	> 20 µM	(78) %	0.0398 µM	–	–	–	–	–	–
CCCN1CC2(CCN(C3CC4(CCN(C(=O)OCC)C4)C3)CC2)OC1=O (single isomer, unassigned) [4-7 Isomer 2]	–	0.631 µM	> 20 µM	2%	41%	> 20 µM	–	0.501 µM	104%	69%	–	–	–	–
CCOC(=O)N1CCC2(CC(N3CCC4(CC3)OC(=O)NC4C)C2)C1 (single isomer, unassigned) [4-11 Isomer 2]	–	0.158 µM	> 20 µM	7%	7%	> 20 µM	–	0.0794 µM	114%	102%	–	–	–	–
CCOC(=O)N1CCC2(CC(N3CCC4(CC3)OC(=O)NC4CC)C2)C1 (single isomer, unassigned) [4-12 Isomer 1]	(17) %	> 20 µM	> 20 µM	4%	–	> 20 µM	(63) %	0.0794 µM	–	–	(50) %	–	–	–
CCOC(=O)N1CCC2(CC(N3CCC4(CC3)OC(=O)NC4CC)C2)C1 (single isomer, unassigned) [4-12 Isomer 3]	(111) %	0.0251 µM	–	–	–	> 6.31 µM	(118) %	0.00631 µM	–	–	(20) %	(8) %	<4.7	–
CCOC(=O)N1CCC2(CC(N3CCC4(CC3)OC(=O)NC4CC(F)(F)F)C2)C1 (single isomer, unassigned) [4-17 Isomer 1 (racemic)]	–	0.126 µM	> 20 µM	14%	54%	> 20 µM	–	0.0316 µM	114%	107%	–	–	–	–
CCOC(=O)N1CCC2(CC(N3CCC4(CC3)OC(=O)N(C)C4CC)C2)C1 (single isomer, unassigned) [4-20 Isomer 3]	(97) %	0.158 µM	> 20 µM	4%	10%	> 20 µM	(59) %	0.0316 µM	–	–	–	–	–	–
CCOC(=O)N1CCC2(CC(N3CCC4(CC3)OC(=O)N(CC)C4CC)C2)C1 (single isomer, unassigned) [4-22 Isomer 3]	(95) %	0.2 µM	> 20 µM	1%	–	> 20 µM	(80) %	0.0316 µM	–	–	(3) %	–	–	–
CCOC(=O)N1CCC2(CC(N3CCC4(CC3)OC(=O)N(CC)C4CC)C2)C1 (single isomer, unassigned) [4-22 Isomer 4]	(104) %	0.2 µM	–	–	–	–	(113) %	0.0501 µM	–	–	(23) %	(2) %	<4.7	<4.7
CCCN1C(=O)OC2(CCN(C3CC4(CCN(C(=O)OCC)C4)C3)CC2)C1CC (single isomer, unassigned) [4-23 Isomer 3]	(88) %	0.316 µM	> 20 µM	4%	8%	> 20 µM	(32) %	0.0501 µM	–	–	–	–	–	–
CCCN1C(=O)OC2(CCN(C3CC4(CCN(C(=O)OCC)C4)C3)CC2)C1CC (single isomer, unassigned) [4-23 Isomer 4]	(96) %	0.316 µM	–	–	–	–	(109) %	0.01 µM	–	–	(8) %	(3) %	<4.7	<4.7
CCOC(=O)N1CCC2(CC(N3CCC4(CC3)OC(=O)N(CC(C)C)C4CC)C2)C1 (single isomer, unassigned) [4-24 Isomer 2 (racemic)]	–	0.501 µM	> 20 µM	2%	53%	> 20 µM	–	0.01 µM	84%	84%	–	–	–	–
CCOC(=O)N1CCC2(CC(N3CCC4(CC3)OC(=O)NC43CCCC3)C2)C1 (single isomer, unassigned) [4-31 Isomer 2]	–	0.794 µM	> 20 µM	4%	4%	> 20 µM	–	0.0316 µM	66%	88%	–	–	–	–
CCN1C(=O)OC2(CCN(C3CC4(CCN(C(=O)OC)C4)C3)CC2)C1(C)C (single isomer, unassigned) [4-34 Isomer 2]	–	2 µM	> 20 µM	1%	2%	> 20 µM	–	0.1 µM	34%	83%	–	–	–	–
CCCN1C(=O)OC2(CCN(C3CC4(CCN(C(=O)OC)C4)C3)CC2)C1(C)C (single isomer, unassigned) [4-36 Isomer 2]	–	12.6 µM	> 20 µM	1%	52%	> 20 µM	–	0.0794 µM	35%	106%	–	–	–	–
CCCN1C(=O)OC2(CCN(C3CC4(CCN(C(=O)OCC)C4)C3)CC2)C1(C)C (single isomer, unassigned) [4-37 Isomer 1]	(84) %	0.398 µM	> 20 µM	7%	3%	> 20 µM	(138) %	0.00501 µM	–	–	–	–	–	–
CCOC(=O)N1CCC2(CC(N3CCC4(CC3)OC(=O)N(CC(C)C)C4(C)C)C2)C1 (single isomer, unassigned) [4-38 Isomer 1]	(72) %	1 µM	> 20 µM	–	–	> 20 µM	–	0.0631 µM	–	97%	(7) %	(3) %	–	–
CCOC(=O)N1CCC2(CC(N3CCC4(CC3)OC(=O)N(CC(C)C)C4(C)C)C2)C1 (single isomer, unassigned) [4-38 Isomer 2]	(25) %	> 20 µM	–	–	–	–	(95) %	0.0316 µM	–	–	(3) %	(1) %	<4.7	<4.7
CCOC(=O)N1CCC2(CC(N3CCC4(CC3)OC(=O)N(CC3CC3)C4(C)C)C2)C1 (single isomer, unassigned) [4-39 Isomer 2]	–	0.794 µM	> 20 µM	8%	87%	> 20 µM	–	0.0631 µM	56%	88%	–	–	–	–

Source: patent US10167284B2, “Spirocyclic compounds as agonists of the muscarinic M1 receptor and/or M4 receptor” (HEPTARES THERAPEUTICS LIMITED, priority 2015, dated 2019)
